Tests used:
[1] = system: wild type and APP/PS1-21 mice; conditions: cited from earlier work
3xTg mouse model = conditions: prolonged JQ1 treatment; cited from earlier work
primary cortical neurons [2] = assay: Neuronal longevity in primary cortical neuron culture (LDH, propidium iodide, cleaved caspase 3); format: cell-based, mouse; conditions: PLX5622 together with IBET858
From the text: Primary Cortical Neuron Culture. Embryonic day 18 (E18) timed-pregnant female mice were anesthetized with CO2 and sacrificed by cervical dislocation. In a dissection hood, 24-26 embryos per experiment were collected through an incision of the mother's abdomen, taken out of the amniotic sacs and decapitated in ice cold Hank's Balanced Salt Solution (HBSS). Using fine scissors and forceps, brains were rapidly dissected and the cortex cleared from meninges and isolated under a dissection microscope. Cortices were collected in ice cold HBSS and kept on ice until all embryos had been dissected. In a tissue culture hood, HBSS was removed and the cortex tissue digested by 0.25% Trypsin-EDTA for 12 minutes at 37° C., followed by DNase1 treatment for 10 minutes at 37° C. The tissue was dissociated by serial trituration with a 25 ml serological pipette, followed by trituration with 10 ml and 5 ml serological pipettes. Cell suspension was washed once with DMEM medium, supplemented with 10% FBS and 1% penicillin/streptomycin and passed through a […] cell strainer before counted on a hemocytometer. Single cells were seeded on poly-D-lysine (0.1 mg ml-1) coated wells at a density of 1×10^6 cells per well on a 12-well plate. Cells were grown in Neurobasal medium, complemented with B27 supplement, N2 supplement, and 0.5 mM L-glutamine and maintained at 37° C. in 5% CO2 for 1 week. Cultures were treated with DMSO (0.2%), I-BET858 (1 μM, 0.2% DMSO), BDNF (50 ng/ml), or BDNF+I-BET858 for 2 and 12 h on day 7 in vitro. Cultures were washed with phosphate-buffered saline (PBS) on ice and processed for RNA isolation using TRIzol/Chloroform extraction.
LDH Assay. LDH activity was measured using the Pierce LDH Cytotoxicity Assay Kit. Culture media was incubated with an equal volume of LDH master mix and incubated for 30 minutes at room temperature in the dark. After, the same volume of stop reagent was added and the absorbance was measured at 490 and 680 nm. Maximum LDH measurements were obtained by adding lysis buffer to release the total amount of LDH in the sample. LDH release is calculated as a percent of the maximum.
Propidium Iodide Assay. Propidium iodide (1 mg/ml, Life Technologies #P3566) was added to each culture well at a final concentration of 0.5 μg/ml. Cultures were incubated for 30 minutes at 37 degrees then washed with PBS. Cells were then fixed with 4% paraformaldehyde in PBS for 15 minutes at room temperature. After fixation, cells were washed with PBS and then mounted using mounting media containing DAPI.
In order to understand the effect of chronic BET inhibition on neuronal survival, primary cortical mouse neurons were cultured in the presence or absence of the brain permeable BET inhibitor IBET858 (1 μM). To quantify cell death over time, the levels of lactate dehydrogenase (LDH) were measured in culture media which is presumably released during cell death as the membranes become permeable. […] The observed decrease in LDH activity after BET inhibition occurs in a dose-dependent manner. LDH activity, which is an indirect measure of cell death, may be affected by other factors such as changes in metabolism or expression of the LDH genes. Therefore in order to confirm these findings, propidium iodide (PI) staining was used to directly quantify the number of dead neurons over time. This membrane impermeable dye increases in fluorescence 20-30 fold after intercalating DNA265. […] To give context to the magnitude of this effect on survival, this experiment was repeated with a direct comparison to the mTOR inhibitor, rapamycin (20 nM).

microglia = assay: Microglia depletion by PLX in wild type mice; conditions: mouse, in vivo
From the text: These models both have strong inflammatory components to their pathology; however it is important to understand the mechanism by which IBET858 improves symptoms. If the pathology is driven by microglial-mediated inflammation, it was hypothesized that depleting microglia from the brain should prevent neuronal degeneration and memory deficits as well. Therefore a pharmacological approach was used to deplete microglia in vivo by inhibiting the colony stimulating factor receptor 1 (CSF1R) which is required for microglial survival and kills 99% of microglia in one week in wild type mice. Elmore et al., “Colony-Stimulating Factor 1 Receptor Signaling is Necessary for Microglia Viability, Unmasking a Microglia Progenitor Cell in the Adult Brain,” Neuron 82:380-397 (2014), which is hereby incorporated by reference in its entirety.
First, the PLX5622-mediated mediated reduction in microglia numbers is not sufficient to reduce inflammatory gene expression to the level that not only allows neuronal survival but also normal function. Second, while IBET858 clearly dampens microglia-mediated inflammation, its neuroprotective effect cannot be solely attributed to microglia and may in fact be a combinatorial effect on other cell types in the brain.

CK-p25 mice = assay: p25 (CK-p25) mouse model of Alzheimer's disease; format: in vivo
BET proteins = conditions: cited from earlier work
primary cortical neurons [3] = assay: Polar metabolite mass spectrometry in primary cortical neurons; format: cell-based, mouse; conditions: acute exposure 24 h, 50 nM
Experimental: Mass Spectrometry. Cell culture plates (2e6 cells per well n=7-8 per group) were washed with 75 mM Ammonium bicarbonate, pH 7.4, warmed to 37 degrees. Plates were quenched on liquid nitrogen for 10 seconds and then placed on dry ice. 1 ml of 70% Ethanol in MS-grade water was warmed to 75 degrees and added to each well. Plates were incubated in a 75 degree water bath for 3 minutes, shaking gently every minute. After 3 minutes, plates were placed on dry ice and once cooled, supernatants were lyophilized using the speed vacuum and stored at −80 degrees. Samples were shipped on dry ice to Cellzome who processed the samples for mass spectrometry and performed the initial analysis annotating metabolites. A semi-quantitative approach was used which determines the metabolite levels relative to a control rather than absolute concentrations. All detected ions were used for statistical analysis regardless of how many samples they were detected. This allows for the identification of low-abundant metabolites that may be present in only a subset of samples.
If IBET858 is indeed decreasing metabolism as indicated, comprehensive metabolic changes after BET inhibition should be observed. Therefore, an unbiased analysis of polar metabolites via mass spectrometry was employed (FIGS. 12A-12C). Accordingly, the levels of 100-150 unique metabolites are changed by chronic BET inhibition in primary cortical neurons.

Q: For `Cc1sc2c(c1C)C(c1ccc(Cl)cc1)=N[C@@H](CC(=O)OC(C)(C)C)c1nnc(C)n1-2` [JQ1], which “cognitive deficits in APP/PS1-21 mouse model” value ([1]; APP/PS1-21) is on record?
A: rescued cognitive deficits

Q: And the “memory, fear conditioning paradigm in wild type mice” value ([1]; wild type mice)?
A: enhanced memory

Q: What about the “level of phosphorylated tau” value (3xTg mouse model) of the same compound?
A: decreased

Q: And the “memory and learning deficits” value (3xTg mouse model)?
A: did not have any effect

Q: Which “neuronal longevity after IBET858 on pharmacological depletion of microglia” value (primary cortical neurons [2]) does the source give for `COc1ncc(F)cc1CNc1ccc(Cc2c[nH]c3ncc(C)cc23)c(F)n1` [PLX5622] here?
A: did not alter longevity

Q: What about the “microglia after PLX in wild type mice” value (microglia) of the same compound?
A: fully depleted

Q: And the “number of microglia compared to wild-type controls” value (CK-p25 mice; CK-p25 mice treated with PLX)?
A: twice the number of microglia

Q: What about the “contextual recall (memory deficits)” value (CK-p25 mice; PLX5622) of the same compound?
A: made contextual recall worse

Q: What about the “neuronal and synapse loss” value (CK-p25 mice; PLX5622) of the same compound?
A: prevented neuronal and synapse loss

Q: For `Oc1ccc(C=Cc2cc(O)cc(O)c2)cc1` [Resveratrol, resveratrol], which “inhibition of BET proteins” value (BET proteins) is on record?
A: weakly inhibit

Q: Which metabolites changed (primary cortical neurons [3]) does the source give for `C=C(C)[C@H]1Cc2c(ccc3c2O[C@@H]2COc4cc(OC)c(OC)cc4[C@@H]2C3=O)O1` [Rotenone, reference compound] here?
A: 300-500 metabolites
